Experimental findings from US10723723B2, “Substituted bicycle heterocyclic derivatives useful as ROMK channel inhibitors” (BRISTOL-MYERS SQUIBB COMPANY, priority 2016, dated 2020) are described below.

Common to all, as to assay type: cell-based
The target in one series is hROMK (Homo sapiens (Human), UniProt P48048). Nature of the series: ROMK Manual Patch Clamp Assay. As to conditions: whole-cell manual patch clamp, hROMK current; read-out: ROMK EP IC50.
The target in the next series is hROMK (human Kir1.1) (Homo sapiens (Human), UniProt P48048). The experiment in a line: Thallium Flux Assay (FluxOR, CHO T-Rex hROMK stable cell line). Conditions: CHO T-Rex hROMK cells, 10-point concentration response curve; read-out: Human ROMK TH Flux IC50.
hROMK (human Kir1.1), sequence (P48048 whole entry): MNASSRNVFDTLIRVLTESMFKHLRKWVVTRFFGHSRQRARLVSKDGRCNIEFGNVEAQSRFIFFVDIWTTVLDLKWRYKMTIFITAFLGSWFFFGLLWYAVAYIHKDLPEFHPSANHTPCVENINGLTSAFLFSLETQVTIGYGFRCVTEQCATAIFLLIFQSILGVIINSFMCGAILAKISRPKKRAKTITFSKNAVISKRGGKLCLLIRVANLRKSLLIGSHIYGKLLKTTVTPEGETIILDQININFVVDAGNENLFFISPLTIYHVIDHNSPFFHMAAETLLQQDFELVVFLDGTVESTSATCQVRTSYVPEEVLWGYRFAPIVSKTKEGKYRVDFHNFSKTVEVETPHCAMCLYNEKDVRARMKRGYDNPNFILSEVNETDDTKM
A further series concerns the target hERG channels (Homo sapiens (Human), UniProt Q12809). Nature of the series: hERG Manual Patch Clamp Assay (HEK 293 cells stably expressing hERG channels). As to conditions: for inhibition at 1 µM: human, HEK 293 cells stably expressing hERG channels, pH 7.4.

hERG channels, sequence (Q12809 whole entry): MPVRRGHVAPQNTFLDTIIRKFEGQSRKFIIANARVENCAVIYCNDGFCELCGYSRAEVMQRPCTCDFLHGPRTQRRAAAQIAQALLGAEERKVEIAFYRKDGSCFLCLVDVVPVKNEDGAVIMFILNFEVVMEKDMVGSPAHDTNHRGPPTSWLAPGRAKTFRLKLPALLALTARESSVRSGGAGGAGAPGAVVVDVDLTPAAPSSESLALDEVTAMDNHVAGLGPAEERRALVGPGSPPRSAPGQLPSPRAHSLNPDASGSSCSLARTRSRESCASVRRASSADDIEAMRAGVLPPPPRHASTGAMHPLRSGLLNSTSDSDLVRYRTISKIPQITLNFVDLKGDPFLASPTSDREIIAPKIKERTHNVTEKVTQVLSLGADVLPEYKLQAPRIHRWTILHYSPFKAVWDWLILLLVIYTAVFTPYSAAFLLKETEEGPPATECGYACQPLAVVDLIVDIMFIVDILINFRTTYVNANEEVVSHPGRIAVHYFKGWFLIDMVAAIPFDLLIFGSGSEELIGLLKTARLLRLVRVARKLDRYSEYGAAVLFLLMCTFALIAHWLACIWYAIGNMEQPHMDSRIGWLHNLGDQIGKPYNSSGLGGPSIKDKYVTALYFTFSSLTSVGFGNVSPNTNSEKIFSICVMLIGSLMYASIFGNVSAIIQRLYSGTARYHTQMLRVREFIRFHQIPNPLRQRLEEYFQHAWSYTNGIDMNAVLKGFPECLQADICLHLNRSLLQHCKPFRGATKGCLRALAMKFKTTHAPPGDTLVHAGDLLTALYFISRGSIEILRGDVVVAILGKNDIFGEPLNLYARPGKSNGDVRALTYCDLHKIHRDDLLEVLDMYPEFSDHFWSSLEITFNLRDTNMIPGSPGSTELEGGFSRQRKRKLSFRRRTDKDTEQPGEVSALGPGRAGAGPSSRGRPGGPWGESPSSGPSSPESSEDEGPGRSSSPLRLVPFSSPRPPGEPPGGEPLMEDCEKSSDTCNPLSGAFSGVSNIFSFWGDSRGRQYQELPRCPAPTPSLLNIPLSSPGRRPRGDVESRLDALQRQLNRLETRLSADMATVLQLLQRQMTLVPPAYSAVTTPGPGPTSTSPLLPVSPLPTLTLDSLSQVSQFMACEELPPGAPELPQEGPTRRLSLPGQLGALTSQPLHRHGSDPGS
hROMK, sequence (P48048 whole entry): as the sequence (P48048 whole entry) above
Protocol for hERG channels: hERG electrophysiology assay: The experimental compounds were assessed for hERG activity on HEK 293 cells stably expressing hERG channels using patch clamp technique. Coverslips plated with hERG expressing cells were placed in the experimental chamber and were perfused with a solution composed of (in mM): 140 NaCl, 4 KCl, 1.8 CaCl2), 1 MgCl2, 10 Glucose, 10 HEPES (pH 7.4, NaOH) at room temperature. Borosilicate patch pipettes had tip resistances of 2-4 Mohms when filled with an internal solution containing: 130 KCl, 1 MgCl2, 1 CaCl2), 10 EGTA, 10 HEPES, 5 ATP-K2 (pH 7.2, KOH). The cells were clamped at −80 mV in whole cell configuration using an Axopatch 200B (Axon instruments, Union City, Calif.) patch clamp amplifier controlled by pClamp (Axon instruments) software. Upon formation of a gigaseal, the following voltage protocol was repeatedly (0.05 Hz) applied to record tail currents: depolarization step from −80 mV to +20 mV for 2 seconds followed by a hyperpolarization step to −65 mV (3 seconds) to elicit tail currents. Compounds were applied after stabilization of tail current. First, tail currents were recorded in presence of extracellular solution alone (control) and subsequently, in extracellular solution containing increasing compound concentrations. Each compound concentration was applied for 2-5 minutes. The percentage inhibition at each concentration was calculated as reduction in peak tail current with respect to the peak tail current recorded in the presence of control solution. Data analysis was performed in a custom made template. The percent inhibitions at different concentrations were plotted to obtain a concentration response curve, which was subsequently fitted with a four parameter equation to calculate hERG IC50 value.
A lower hERG % Inhibition value indicates less inhibition of the hERG current
Protocol for hROMK (human Kir1.1): Solutions and reagents: Thallium flux assay was performed using FluxOR kit (F10017, Life Technologies). Loading buffer, assay buffer and stimulus buffer were prepared using kit components.
To prepare 10 ml of loading buffer: 10 μl of FluxOR dye (reconstituted in DMSO) was first added to 100 μl of powerload concentrate and this mix along with 100 μl of Probenicid (100×) was then added to 9.79 ml of HBSS. […] Stimulus buffer was composed of 15 mM Tl2SO4, 0.75 mM K2SO4 in FluxOR chloride free buffer (diluted to 1× using deionized water). The final concentration of Tl2SO4 and K2SO4 in the assay plate was 3 mM and 0.15 mM, respectively.
Plating and induction of cells: The CHO T-Rex hROMK (human Kir1.1) stable cell line was maintained in Ham's F12 media supplemented with 10% FBS, 1% Penicillin-Streptomycin, 500 μg/ml Zeocin and 10 μg/ml Blasticidin at 37° C. in a 5% CO2 incubator. […] The cell suspension was centrifuged at 1200 rpm for 5 min. After discarding the supernatant, the cells were resuspended in fresh growth media and cell concentration was determined using a hemocytometer. […] The assay plate was kept at 37° C. in a 5% CO2 incubator.
Assay protocol: On the day of experiment, media was removed and loading buffer was added (30 μl/well) to the assay plate. The cells were incubated in the loading buffer for 30 minutes at 37° C. The loading buffer was then replaced by assay buffer (30 μl/well) followed by addition of test compounds or controls. […] Each well was read for 90 sec at 2 sec interval and the stimulus buffer was added after 20 seconds of baseline recording. The final DMSO concentration was either 0.5 or 1% in the assay plate. Positive and negative controls were defined by addition of DMSO or 3 μM of a standard ROMK inhibitor, respectively, to the wells instead of a test compound.
A 10-point concentration response curve was used to estimate the IC50 value of test compounds.

`COc1cc(-n2cnc(CNC[C@H](O)c3ccc4c(c3C)COC4=O)c2)ncc1C#N` [Example 51, (R)-6-(4-(((2-hydroxy-2-(4-methyl-1-oxo-1,3-dihydroisobenzofuran-5-yl)ethyl)amino)methyl)-1H-imidazol-1-yl)-4-methoxynicotinonitrile]: the concentration for half-maximal inhibition (IC50) at hROMK was determined as 38 nM; at hROMK (human Kir1.1), 73 nM. The same compound yielded an inhibition at 1 µM against hERG channels of 3.4%.

As for `CN(Cc1ccc(-c2ccc3oc(=O)n(C)c3c2)nc1)C[C@H](O)c1ccc2oc(=O)n(C)c2c1` [Example 6-I], the concentration for half-maximal inhibition (IC50) on hROMK stood at 11 nM. Besides, the “hERG EP IC50 (% Inh @1 uM)” value on hERG channels (% inhibition of hERG current at 1 uM, manual patch clamp, HEK 293 cells) was determined as 26%.

As for `Cc1cn(-c2ccc(CNC[C@H](O)c3ccc4c(c3C)COC4=O)cn2)cn1` [Example 108, (R)-5-(1-hydroxy-2-(((6-(4-methyl-1H-imidazol-1-yl)pyridin-3-yl)methyl)amino)ethyl)-4-methylisobenzofuran-1(3H)-one], the figures for the 50% inhibitory concentration (IC50) on hROMK and at hROMK (human Kir1.1) were 19 nM and 35 nM, respectively. The same compound came in with an inhibition at 1 µM on hERG channels of 7.3%.

`Cc1c([C@@H](O)CNCc2cnc(-n3cc(C#N)c(C(F)F)n3)nc2)ccc2c1COC2=O` [Example 115, (R)-3-(difluoromethyl)-1-(5-(((2-hydroxy-2-(4-methyl-1-oxo-1,3-dihydroisobenzofuran-5-yl)ethyl)amino)methyl)pyrimidin-2-yl)-1H-pyrazole-4-carbonitrile]: the IC50 at hROMK and on hROMK (human Kir1.1) was 20 nM each time. The same compound yielded an inhibition at 1 µM at hERG channels of 12%.

In the case of `Cc1cc(-c2cc(CNC[C@H](O)c3ccc4c(c3C)COC4=O)on2)ncc1C#N` [Example 140, (R)-6-(5-(((2-hydroxy-2-(4-methyl-1-oxo-1,3-dihydroisobenzofuran-5-yl)ethyl)amino)methyl)isoxazol-3-yl)-4-methylnicotinonitrile], the 50% inhibitory concentration (IC50) worked out at 16 nM at hROMK and 56 nM at hROMK (human Kir1.1). Also, the inhibition at 1 µM on hERG channels worked out at 8.6%.

In the case of `Cc1c(C(O)CNCc2ccc3c(ccn3-c3ccc4c(c3)COC4=O)c2)ccc2c1COC2=O` (centres unmarked) [Example 8-I, 5-(1-hydroxy-2-(((1-(1-oxo-1,3-dihydroisobenzofuran-5-yl)-1H-indol-5-yl)methyl)amino)ethyl)-4-methylisobenzofuran-1(3H)-one], the half-maximal inhibitory concentration (IC50) came out at 42 nM on hROMK and 290 nM on hROMK (human Kir1.1). Moreover, the inhibition at 1 µM against hERG channels is 83%.

With `COc1cc(-c2cc(CNC[C@H](O)c3ccc4c(c3C)COC4=O)on2)ncc1C#N` [Example 137, (R)-6-(5-(((2-hydroxy-2-(4-methyl-1-oxo-1,3-dihydroisobenzofuran-5-yl)ethyl)amino)methyl)isoxazol-3-yl)-4-methoxynicotinonitrile], the half-inhibitory concentration (IC50) stood at 26 nM at hROMK and 35 nM at hROMK (human Kir1.1). Further, on hERG channels, the inhibition at 1 µM worked out at 7.6%.

As for `Cc1cc(-n2cc(CNC[C@H](NS(C)(=O)=O)c3ccc4c(c3C)COC4=O)cn2)ncc1C#N` [Example 61, (R)-N-(2-(((1-(5-cyano-4-methylpyridin-2-yl)-1H-pyrazol-4-yl)methyl)amino)-1-(4-methyl-1-oxo-1,3-dihydroisobenzofuran-5-yl)ethyl)methanesulfonamide], the IC50 at hROMK and at hROMK (human Kir1.1) was 27 nM throughout. Moreover, the inhibition at 1 µM on hERG channels amounted to 8.4%.

Regarding `Cc1c(C(O)CN(C)Cc2ccc(-c3ccc(C#N)c(F)c3)cc2)ccc2c1COC2=O` (single isomer, unassigned) [Example 27-I, 3-fluoro-4′-(((2-hydroxy-2-(4-methyl-1-oxo-1,3-dihydroisobenzofuran-5-yl)ethyl)(methyl)amino)methyl)-[1,1′-biphenyl]-4-carbonitrile], the values for the concentration for half-maximal inhibition (IC50) on hROMK and at hROMK (human Kir1.1) were 6.8 nM and 40 nM, respectively. The same compound displayed an inhibition at 1 µM against hERG channels of 95%.

Turning to `Cc1c(C(O)CNCc2ccc(-c3ccc4oc(=O)n(C)c4c3)nc2)ccc2c1COC2=O` (single isomer, unassigned) [Example 23-I, 5-(5-(((2-hydroxy-2-(4-methyl-1-oxo-1,3-dihydroisobenzofuran-5-yl)ethyl)amino)methyl)pyridin-2-yl)-3-methylbenzo[d]oxazol-2(3H)-one], the half-inhibitory concentration (IC50) is 15 nM on hROMK and 160 nM at hROMK (human Kir1.1). Besides, at hERG channels, the inhibition at 1 µM is 13%.

Turning to `COc1cc(-c2ccc(CNC[C@H](O)c3ccc4c(c3C)COC4=O)cn2)ncc1C#N` [Example 130, (R)-5′-(((2-hydroxy-2-(4-methyl-1-oxo-1,3-dihydroisobenzofuran-5-yl)ethyl)amino)methyl)-4-methoxy-[2,2′-bipyridine]-5-carbonitrile], the IC50 turned out to be 1.1 nM on hROMK and 8.3 nM on hROMK (human Kir1.1). At hERG channels, testing at 1 µM gave an inhibition of 32%.

`Cc1nn(-c2ccc(CNC[C@H](O)c3ccc4c(c3C)COC4=O)cn2)cc1C#N` [Example 178, (R)-1-(5-(((2-hydroxy-2-(4-methyl-1-oxo-1,3-dihydroisobenzofuran-5-yl)ethyl)amino)methyl)pyridin-2-yl)-3-methyl-1H-pyrazole-4-carbonitrile]: the half-maximal inhibitory concentration (IC50) amounted to 2.1 nM on hROMK and 3.6 nM on hROMK (human Kir1.1). This compound had an inhibition at 1 µM against hERG channels of 36%.

Consider `Cc1c(C(O)CN(C)Cc2ccc(-c3ccc4oc(=O)n(C)c4c3)nc2)ccc2c1COC2=O` (centres unmarked) [Example 1-I, 5-(5-(((2-hydroxy-2-(4-methyl-1-oxo-1,3-dihydroisobenzofuran-5-yl)ethyl)(methyl)amino)methyl)pyridin-2-yl)-3-methylbenzo[d]oxazol-2(3H)-one], for which the results for the half-inhibitory concentration (IC50) on hROMK and on hROMK (human Kir1.1) were 19 nM and 170 nM, respectively. On hERG channels, this compound registered an inhibition at 1 µM of 8.7%.

In the case of `Cc1c([C@@H](O)CNCc2ccc(-n3cc(C#N)cn3)nc2)ccc2c1COC2=O` [Example 177], the IC50 on hROMK worked out at 0.15 nM; at hROMK (human Kir1.1) it was 0.57 nM. The compound further had an inhibition at 1 µM at hERG channels of 98%.

`COc1nc(-n2cc(CNC[C@H](O)c3ccc4c(c3C)COC4=O)nn2)cc(C)c1C#N` [Example 67, (R)-6-(4-(((2-hydroxy-2-(4-methyl-1-oxo-1,3-dihydroisobenzofuran-5-yl)ethyl)amino)methyl)-1H-1,2,3-triazol-1-yl)-2-methoxy-4-methylnicotinonitrile]: the IC50 at hROMK is 9.3 nM; on hROMK (human Kir1.1), 20 nM. 1 µM produced 11% inhibition against hERG channels.

As to `COc1cc(-n2cc(CNC[C@H](O)c3ccc4c(c3C)COC4=O)nn2)ncc1C#N` [Example 138, (R)-6-(4-(((2-hydroxy-2-(4-methyl-1-oxo-1,3-dihydroisobenzofuran-5-yl)ethyl)amino)methyl)-1H-1,2,3-triazol-1-yl)-4-methoxynicotinonitrile], the values for the half-inhibitory concentration (IC50) on hROMK and at hROMK (human Kir1.1) were 18 nM and 43 nM, respectively. On hERG channels, this compound returned an inhibition at 1 µM of 10%.

As to `COc1cc(-n2cc(CNC(C)C(O)c3ccc4c(c3C)COC4=O)nn2)ncc1C#N` (single isomer, unassigned) [Example 91-I, 6-(4-(((1-hydroxy-1-(4-methyl-1-oxo-1,3-dihydroisobenzofuran-5-yl)propan-2-yl)amino)methyl)-1H-1,2,3-triazol-1-yl)-4-methoxynicotinonitrile], the IC50 at hROMK stood at 11 nM; on hROMK (human Kir1.1), 21 nM. Besides, the inhibition at 1 µM on hERG channels was found to be 19%.

Take `Cc1c([C@@H](O)CNCc2cn(-c3ccc4oc(=O)n(C)c4c3)nn2)ccc2c1COC2=O` [Example 139, (R)-5-(4-(((2-hydroxy-2-(4-methyl-1-oxo-1,3-dihydroisobenzofuran-5-yl)ethyl)amino)methyl)-1H-1,2,3-triazol-1-yl)-3-methylbenzo[d]oxazol-2(3H)-one]: the figures for the half-maximal inhibitory concentration (IC50) on hROMK and at hROMK (human Kir1.1) were 24 nM and 55 nM, respectively. Besides, the inhibition at 1 µM against hERG channels came to 5.9%.

For `Cc1cc(-n2cc(CNCC(O)c3ccc4c(c3C3CC3)COC4=O)cn2)ncc1C#N` (single isomer, unassigned) [Example 46-I, 6-(4-(((2-(4-cyclopropyl-1-oxo-1,3-dihydroisobenzofuran-5-yl)2-hydroxyethyl)amino)meth-yl)-1H-pyrazol-1-yl)-4-methylnicotinonitrile], the IC50 at hROMK is 17 nM; on hROMK (human Kir1.1), 33 nM.

For `Cc1c(C(O)CNCc2ccc(-c3ccc(C#N)c(F)c3)cc2)ccc2c1COC2=O` (centres unmarked) [Example 10-I, 3-fluoro-4′-(((2-hydroxy-2-(4-methyl-1-oxo-1,3-dihydroisobenzofuran-5-yl)ethyl)amino)methyl)-[1,1′-biphenyl]-4-carbonitrile], the IC50 at hROMK (human Kir1.1) came out at 53 nM. For the same compound, the inhibition at 1 µM against hERG channels was determined as 92%.

Turning to `Cc1c([C@@H](O)CNCc2cccc(-c3ccc4oc(=O)n(C)c4c3)n2)ccc2c1COC2=O` [Example 133, (R)-5-(6-(((2-hydroxy-2-(4-methyl-1-oxo-1,3-dihydroisobenzofuran-5-yl)ethyl)amino)methyl)pyridin-2-yl)-3-methylbenzo[d]oxazol-2(3H)-one], the IC50 on hROMK (human Kir1.1) is 900 nM. Also, at 1 µM the inhibition against hERG channels was 59%.

`Cc1cn(-c2ccc(CNC[C@H](O)c3ccc4c(c3C)COC4=O)cn2)nn1` [Example 118, (R)-5-(1-hydroxy-2-(((6-(4-methyl-1H-1,2,3-triazol-1-yl)pyridin-3-yl)methyl)amino)ethyl)-4-methylisobenzofuran-1(3H)-one]: the IC50 at hROMK (human Kir1.1) was 70 nM. At hERG channels, this compound had an inhibition at 1 µM of 16%.

With `CCOc1cc(-n2ncc(CNC[C@H](O)c3ccc4c(c3C)COC4=O)n2)ncc1C#N` [Example 155, (R)-4-ethoxy-6-(4-(((2-hydroxy-2-(4-methyl-1-oxo-1,3-dihydroisobenzofuran-5-yl)ethyl)amino)methyl)-2H-1,2,3-triazol-2-yl)nicotinonitrile], the IC50 at hROMK (human Kir1.1) worked out at 31 nM. Further, 1 µM produced 20% inhibition against hERG channels.

As to `Cc1c([C@@H](O)CN(Cc2ccc(-c3ccc4oc(=O)n(C)c4c3)nc2)CC2CC2)ccc2c1COC2=O` [Example 162, (R)-5-(5-(((cyclopropylmethyl)(2-hydroxy-2-(4-methyl-1-oxo-1,3-dihydroisobenzofuran-5-yl)ethyl)amino)methyl)pyridin-2-yl)-3-methylbenzo[d]oxazol-2(3H)-one], the half-inhibitory concentration (IC50) on hROMK (human Kir1.1) worked out at 110 nM. The same compound displayed an inhibition at 1 µM at hERG channels of 44%.
